“Also recorded” adds a separate entry of the source.
What was measured:
ERK [1] = experiment: ERK activity in SNP treated chondrocytes; format: cell-based
Text: (§1) In order to investigate the effect of ERK activity on the de-differentiation of chondrocytes induced by NO production, the change of ERK activity in SNP treated chondrocytes was detected. […] In order to increase the ERK activity by SNP, at least 0. […] The ERK activity inhibitor also restrained the inhibition of type-II collagen expression by SNP (FIG. 8C), and it blocked the decrease of proteoglycan synthesis induced by SNP (FIG. 8D).
(§2) For the activation of ERK, phosphorylation by MEK, the upstream signal transduction molecule of ERK, is required.

chondrocytes [2] = experiment: NO (SNP) induced de-differentiation of chondrocytes (type-II collagen, proteoglycan); format: cell-based
Text: as §1

chondrocytes [3] = experiment: NO production in chondrocytes treated with SNP; format: cell-based
Text: In order to investigate the effect of NO produced in chondrocytes on the de-differentiation of chondrocytes, the present inventors treated the cells with […] (SNP), a NO donor, to induce No production.

COX-2 = COX-2 expression in IL-1β treated chondrocytes (Western blotting); format: cell-based
Description: The present inventors have further investigated the relation between the inhibition of ERK activity and the expression of COX-2. Particularly, the inventors have confirmed with Western blotting the quantity of cox-2 protein expressed in chondrocytes after treating the cells with different concentrations of IL-1β for 24 hours.

MMP-9 = MMP-9 activity/expression by gelatin zymography in IL-1β treated articular cartilage cells; format: cell-based
Description: Particularly, articular cartilage cells were treated with 10 ng/ml of IL-1β according to the different times (0 minutes, ten minutes, thirty minutes, one hour, two hours, four hours, six hours, twelve hours, and 24 hours) and concentrations (0 ng/ml, 0.01 ng/ml , 0.1 ng/ml, 1 ng/ml, and 10 ng/ml), and culture supernatant was then obtained, followed by electrophoresis on the gel containing 2% gelatin. The separated gel was cultured at 37° C. for twelve hours, by which the decomposition of gelatin was induced by MMP-9. The remaining gelatin was stained for the confirmation of gelatin decomposition by MMP, based on which the MMP-9 activity was measured.

ERK [4] = experiment: ERK activity in IL-1β treated chondrocytes; format: cell-based; conditions: chondrocytes treated with IL-1β
chondrocytes [5] = experiment: IL-1β induced NO production in chondrocytes (nitrite); format: cell-based
Description: Particularly, the amount of NO was determined by measuring the concentration of nitrite, a reaction product of NO, secreted after treating chondrocytes with IL1-β for 24 hours.

SPF SD line rats = experiment: Acute toxicity test in rat via non-oral administration; format: in vivo
Description: Six-week old SPF SD line rats were used in the tests for acute toxicity. 2-(2-amino-3-methoxyphenol)-4H-1-benzopyran-4-one (PD98059) of the present invention was suspended in 0.5% methyl cellulose solution and intravenous injected once into two rats per group at dosages of 50, 30, and 10 mg/kg/15 ml. Death, clinical symptoms, and weight change in the rats were observed, hematological tests and biochemical tests of blood were performed, and abnormal signs in the gastrointestinal organs of chest and abdomen were observed visually during autopsy.

[6] = tested on: limb bud mesenchymal cells of chicken embryo; experiment: Differentiation of mesenchymal cells to chondrocytes (alcian blue staining, type-II collagen Western blot); format: cell-based
Description: (§3) The present inventors have observed the differentiation process of chondrocytes using limb bud mesenchymal cells of Hamburger-Hamilton stage 24-25 chicken embryo under micromass culture (FIG. 1A). Particularly, mesenchymal cells were suspended in Ham's F-12 medium (Gibco BRL, Gaithersburg, Md., USA) supplemented with 10% fetal bovine serum (2×10^7 cells/ ml). The cell suspension was loaded onto culture dish (15 μl/spot) and cultured at 37° C. for two hours in order to fix the cells on the dish. The cells were further cultured in the Ham's F-12 medium containing 10% FBS, 50 μg/ml streptomycin, and 50 units/ml penicillin.
As a result, when mesenchymal cells were micromass cultured for five days, the synthesis of type-II collagen, a characteristic of chondrocytes, began to take place from the third day of culturing, which was confirmed by Western blotting using an antibody implying that the differentiation of chondrocytes was progressed. The accumulation of sulfated proteoglycan was also confirmed through alcian blue staining to be increased, which also implied that the differentiation of chondrocytes began from the third day of culturing and completed on the fifth day (FIG. 2A).
The present inventors have confirmed the effect of ERK activity inhibition on the differentiation of chondrocytes. […]

ERK [7] = experiment: ERK activity in serially monolayer-cultured articular chondrocytes; format: cell-based, rabbit; conditions: 20 μM, chondrocytes of each passage, two additional days
Text: In order to confirm the de-differentiation and degeneration of chondrocytes, the present inventors have performed consecutively monolayer culture with articular chondrocytes of a two- to four-week-old rabbit (FIG. 1B). Particularly, articular cartilage of the rabbit was thin-sectioned aseptically, and the articular fragments were then reacted in PBS containing 0.2% collagenase type-II (Sigma) for six hours. Through quick-centrifugation, single cells were obtained. The single cells were suspended in DMEM (Dulbecco 's modified Eagle's medium, Gibco BRL, Gaithersburg, Md., USA) containing 10% FBS, 50 μg/ml streptomycin, and 50 units/ml penicillin and were plated onto a culture-dish at a density of 5×10^4 cells/cm^2 and cultured at 37° C. The medium was changed every other day. Five days later, the culture dish was filled with grown-up cells, which were identified as P0. Those cells were subcultured at the concentration of 5×10^4 cells/cm^2 per culture dish. […]
In order to ascertain the effect of ERK activity on the de-differentiation of chondrocytes, rabbit articular cartilage cells were cultured at the density of 5×10^4 cells/cm^2 on a culture dish. […] The expression of type-II collagen was analyzed by Western and Northern blotting, resulting in the highest expression in, P0, beginning to decrease in P1 and almost no expression after P3 (FIG. 4A). […]

P0 and P2 chondrocytes = experiment: Immunostaining of type-II collagen in P0 and P2 chondrocytes; format: cell-based, rabbit; conditions: 20 μM, two days, immunofluorescence
Description: In order to examine the suppression of de-differentiation by the inhibition of ERK activity, the expression of collagen was observed by immunostaining. Particularly, 20 μM of ERK activity inhibitor 2-(2-amino-3-methoxyphenol)-4H-1-benzopyran-4-one (PD98059) was added into P0 and P2 chondrocytes, and the cells were then cultured for two days. The cultured cells were fixed with 3% parpformaldehyde for ten minutes and some parts of the cell membranes were disrupted by 0.2% X-100. Next, anti-type II collagen antibody (10 μg/ml) was added thereto and continued to culture thereof for one hour.

ERK [8] = experiment: ERK activity (Western blot, phosphorylated ERK-specific antibody) in micromass-cultured mesenchymal cells; format: cell-based, chicken; conditions: mesenchymal cells treated with PD98059, micromass culture
Description: as §3
The present inventors have confirmed the effect of ERK activity inhibition on the differentiation of chondrocytes. Particularly, the present inventors have investigated how the differentiation was influenced by the change and the inhibition of ERK activity during the differentiation process of chondrocytes induced by micromass culture of mesenchimal cells (FIG. 2A and Example 1-1). […] Therefore, it was confirmed that the decrease of ERK activity was required for the differentiation from mesenchimal cells to chondrocytes; that is, the differentiation of chondrocytes was stimulated by the inhibition of ERK activity.
as §2

[9] = tested on: rabbit articular chondrocytes; experiment: De-differentiation of articular chondrocytes in serial monolayer culture (type-II collagen, proteoglycan synthesis); format: cell-based; conditions: two days; for expression of type-II collagen: 20 μM
Text: In order to confirm the de-differentiation and degeneration of chondrocytes, the present inventors have performed consecutively monolayer culture with articular chondrocytes of a two- to four-week-old rabbit (FIG. 1B). Particularly, articular cartilage of the rabbit was thin-sectioned aseptically, and the articular fragments were then reacted in PBS containing 0.2% collagenase type-II (Sigma) for six hours. Through quick-centrifugation, single cells were obtained. The single cells were suspended in DMEM (Dulbecco 's modified Eagle's medium, Gibco BRL, Gaithersburg, Md., USA) containing 10% FBS, 50 μg/ml streptomycin, and 50 units/ml penicillin and were plated onto a culture-dish at a density of 5×10^4 cells/cm^2 and cultured at 37° C. The medium was changed every other day. Five days later, the culture dish was filled with grown-up cells, which were identified as P0. Those cells were subcultured at the concentration of 5×10^4 cells/cm^2 per culture dish. The cells were continuously subcultured whenever they were fully grown to fill the dishes and were identified as P1 and next P2. Subculture was finished when P6 phase was completed. […] It was also confirmed by alcian blue staining that the accumulation of glycosaminoglycan sulfide was decreased as the subculture was continued. The de-differentiation and degeneration of chondrocytes were also disclosed by observing the shape of chondrocytes, which was changed from their distinguished round shape to fibroblast shape, a characteristic of degenerated chondrocytes (FIG. 2B).
In order to ascertain the effect of ERK activity on the de-differentiation of chondrocytes, rabbit articular cartilage cells were cultured at the density of 5×10^4 cells/cm^2 on a culture dish. The cells began to proliferate on the second day of culture and reached saturation on the fifth day. The cells in saturation point were designated as P0. The cells in P0 stage had typical round or polygonal shapes, but these forms changed into flat and fibroblast-like shapes while the cells were going through P6 stage by serial monolayer culture (FIG. 2B). The expression of type-II collagen was analyzed by Western and Northern blotting, resulting in the highest expression in, P0, beginning to decrease in P1 and almost no expression after P3 (FIG. 4A). […] Therefore, it was confirmed that the ERK activity was in inverse proportion to the expression of type-II collagen, which means the ERK activity plays an important role in the de-differentiation process.
To determine the relations between ERK activity and de-differentiation, the cells under subculturing were treated with 2-(2-amino-3-methoxyphenol)-4H-1-benzopyran-4-one (PD98059), an ERK activity inhibitor, and the synthesis of collagen and proteoglycan was observed. […]

[10] = single intravenous injection, 50, 30 and 10 mg/kg/15 ml

CC(=O)N[C@H](C(=O)O)C(C)(C)SN=O [SNP, S-nitroso-N-acetyl penicillamine]
ERK activity, time course (ERK [1]; 1 mM SNP): began to increase three hours after the treatment and reached the highest activity twelve hours later | SNP concentration required to increase the ERK activity (ERK [1]; chondrocytes): at least 0. 5 mM | expression of type-II collagen (chondrocytes [2]; 0.1 mM SNP, 24 hours): started to decrease | expression of type-II collagen (chondrocytes [2]; 1 mM SNP, 12 hours): began to decrease | expression of type-II collagen (chondrocytes [2]; 1 mM SNP, 24 hours): totally suppressed | synthesis of proteoglycan (chondrocytes [2]; SNP treated chondrocytes): decreased depending on the concentration | NO production (chondrocytes [3]): in proportion to the concentration

IL-1β: an inflammatory cytokine
expression of cox-2 (COX-2; different concentrations of IL-1β, 24 hours): increased depending on the concentration | expression of MMP-9 (MMP-9; IL-1β 0-10 ng/ml, gelatin zymography): largely increased depending on the concentration | ERK activity (ERK [4]): temporarily increased at the early stage | NO production (chondrocytes [5]; chondrocytes treated with IL-1β): stimulates NO production in a dose-dependent manner

COc1cccc(-c2cc(=O)c3ccccc3o2)c1N [PD98059, 2-(2-amino-3-methoxyphenol)-4H-1-benzopyran-4-one]
level not causing any toxic change (SPF SD line rats; single intravenous injection): ≤ 50 mg/kg | clinical symptoms, weight change, death (SPF SD line rats; [10]): did not cause any specific clinical symptoms, weight change, or death | hematological tests, biochemical tests of blood, autopsy (SPF SD line rats; [10]): No change was observed | expression of cox-2 (COX-2; 5 μM PD98059, IL-1β for 24 hours): completely suppressed | synthesis of proteoglycan (alcian blue staining) ([6]; mesenchymal cells treated with PD98059): remarkably increased; also recorded: largely increased | expression of type-II collagen ([6]; mesenchymal cells treated with PD98059, Western blot): also increased | ERK activity (ERK [1]; 20 μM PD98059, SNP treated chondrocytes): totally restrained | ERK activity (ERK [7]): suppressed | decrease of proteoglycan synthesis induced by SNP (chondrocytes [2]; PD98059 with SNP): blocked | inhibition of type-II collagen expression by SNP (chondrocytes [2]; PD98059 with SNP): restrained | expression of MMP-9 (MMP-9; 10 μM PD98059, IL-1β treated chondrocytes): suppressed | numbers of type-II collagen expressed cells (P0 and P2 chondrocytes; P0 cells): remarkably increased | numbers of type-II collagen expressed cells (P0 and P2 chondrocytes; P2 cells): greatly increased | activity of ERK (ERK [8]): decreased in a dose-dependent manner | increase of synthesis of proteoglycan by a factor (alcian blue staining) ([9]; P0, 20 μM): 2.6 | expression of type-II collagen ([9]; P0 cells): largely increased | increase of synthesis of proteoglycan by a factor (alcian blue staining) ([9]; P2, 20 μM): 6.4 | expression of type-II collagen ([9]; P2 cells): turned to express again | NO production caused by IL-1β (chondrocytes [5]; 5 μM PD98059, IL-1β for 24 hours, nitrite): completely inhibited

Reference: US20040176289A1, “Pharmaceutical composition for prevention and treatment of joint arthritis and a screening method thereof” (priority 2001, published 2004)
